Type in all cases: cell-based
In test [1] the target is T1, 17β-hydroxysteroid dehydrogenase type 1 (17β-HSD type 1) (Homo sapiens, UniProt P14061).
T1 construct: expressed in transfected cells; host or cells: MCF-7
T1 sequence (P14061 1-328): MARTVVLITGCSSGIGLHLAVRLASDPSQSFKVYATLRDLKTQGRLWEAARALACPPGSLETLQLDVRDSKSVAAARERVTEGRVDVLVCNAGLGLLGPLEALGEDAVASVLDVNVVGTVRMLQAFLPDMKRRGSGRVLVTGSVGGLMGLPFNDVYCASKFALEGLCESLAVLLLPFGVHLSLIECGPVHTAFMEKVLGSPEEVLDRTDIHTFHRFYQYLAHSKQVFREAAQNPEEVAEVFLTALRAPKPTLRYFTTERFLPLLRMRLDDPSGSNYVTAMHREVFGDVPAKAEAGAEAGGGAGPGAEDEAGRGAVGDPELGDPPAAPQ
As to the kind of experiment: Inhibition of 17β-HSD type 1 in MCF-7 cells stably expressing the isoenzyme (tritium labeled estrone conversion, HPLC). The settings on record: MCF7, MCF-7 cells expressing 17β-HSD type 1, 2 nM tritium labeled estrone; for inhibition at 1 µM: 1 μM test compound, read-out: % Inhibition HSD1 1 μM; for inhibition at 10 µM: 10 μM test compound, read-out: % Inhibition HSD1 10 μM. The method, boiled down:
(§1)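 Compounds are tested at two concentrations on MCF-7 cells carrying a single 17β-HSD isoenzyme, with 2 nM tritiated estrone, estradiol or androstenedione as type 1, 2 or 3 substrate. Percent inhibition reflects lower conversion relative to a compound-free control.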

The target of test [2] is T2, 17β-hydroxysteroid dehydrogenase type 3 (17β-HSD type 3) (Homo sapiens, UniProt P37058).
T2 construct: expressed in transfected cells; host or cells: MCF-7
T2 sequence (P37058 1-310): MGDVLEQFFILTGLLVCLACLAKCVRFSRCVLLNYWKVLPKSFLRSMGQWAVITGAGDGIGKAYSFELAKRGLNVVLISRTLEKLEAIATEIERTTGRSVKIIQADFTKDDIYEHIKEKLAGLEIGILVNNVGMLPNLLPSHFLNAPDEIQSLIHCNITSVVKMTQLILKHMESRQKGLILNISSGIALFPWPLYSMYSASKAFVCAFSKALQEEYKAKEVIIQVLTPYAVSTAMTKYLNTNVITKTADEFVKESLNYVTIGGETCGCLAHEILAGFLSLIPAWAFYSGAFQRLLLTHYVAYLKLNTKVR
As to the kind of experiment: Inhibition of 17β-HSD type 3 in MCF-7 cells stably expressing the isoenzyme (tritium labeled androstenedione conversion, HPLC). The note with it: MCF7, MCF-7 cells expressing 17β-HSD type 3, 2 nM tritium labeled androstenedione; for inhibition at 1 µM: 1 μM test compound, read-out: % Inhibition HSD3 1 μM; for inhibition at 10 µM: 10 μM test compound, read-out: % Inhibition HSD3 10 μM. The gist of the method:
as §1

In test [3] the target is T3, 17β-hydroxysteroid dehydrogenase type 2 (17β-HSD type 2) (Homo sapiens, UniProt P37059).
T3 construct: expressed in transfected cells; host or cells: MCF-7
T3 sequence (P37059 1-387): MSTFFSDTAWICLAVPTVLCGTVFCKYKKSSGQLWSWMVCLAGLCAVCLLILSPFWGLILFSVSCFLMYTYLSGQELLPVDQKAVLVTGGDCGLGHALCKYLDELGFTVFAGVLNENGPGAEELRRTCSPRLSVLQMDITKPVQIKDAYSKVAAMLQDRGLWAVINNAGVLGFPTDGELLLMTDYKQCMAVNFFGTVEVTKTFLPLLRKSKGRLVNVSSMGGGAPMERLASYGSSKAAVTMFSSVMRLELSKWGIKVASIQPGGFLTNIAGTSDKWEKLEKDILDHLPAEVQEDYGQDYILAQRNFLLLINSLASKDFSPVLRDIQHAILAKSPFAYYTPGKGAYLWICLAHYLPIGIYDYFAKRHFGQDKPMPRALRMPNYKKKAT
As to the kind of experiment: Inhibition of 17β-HSD type 2 in MCF-7 cells stably expressing the isoenzyme (tritium labeled estradiol conversion, HPLC). The note with it: MCF7, MCF-7 cells expressing 17β-HSD type 2, 2 nM tritium labeled estradiol; for inhibition at 1 µM: 1 μM test compound, read-out: % Inhibition HSD2 1 μM; for inhibition at 10 µM: 10 μM test compound, read-out: % Inhibition HSD2 10 μM. The gist of the method: as §1

Regarding `COc1cc(-c2nc3sc4c(OC(C)=O)cccc4c3c(=O)n2CC(C)C)c(Br)c(OC)c1OC` [No. 118, Acetic acid 2-(2-bromo-3,4,5-trimethoxyphenyl)-3-isobutyl-4-oxo-3,4-dihydro-benzo[4,5]-thieno[2,3-d]pyrimidin-8-yl ester], the inhibition at 1 µM came to 31% in test [1], 10.8% in test [2] and 23.6% in test [3]. Besides, the figures for the inhibition at 10 µM in test [1], in test [2] and in test [3] were 51.5%, 24.4% and 24.4%, respectively.
Take `COc1cc(-c2nc3sc4c(c3c(=O)n2Cc2ccco2)CCCC4)cc(OC)c1OC` [No. 119, 3-Furan-2-ylmethyl-2-(3,4,5-trimethoxylphenyl)-5,6,7,8-tetrahydro-3H-benzo[4,5]thieno[2,3-d]pyrimidin-4-one]: the inhibition at 1 µM worked out at 9.6% in test [1], 2.3% in test [2] and 25.1% in test [3]. Moreover, the results for the inhibition at 10 µM in test [1], in test [2] and in test [3] were 27.9%, 19.1% and 30.1%, respectively.
`COc1cc(-c2nc3sc4c(c3c(=O)n2Cc2ccco2)CCCC4=O)cc(OC)c1OC` [No. 120, 3-Furan-2-ylmethyl-2-(3,4,5-trimethoxylphenyl)-6,7-dihydro-3H,5H-benzo[4,5]thieno[2,3-d]pyrimidine-4,8-dione]: the inhibition at 1 µM was 17.6% in test [1], 12.4% in test [2] and 19.9% in test [3]. For the same compound, the values for the inhibition at 10 µM in test [1], in test [2] and in test [3] were 52.1%, 38.4% and 35.4%, respectively.
As for `COc1cc(-c2nc3sc4c(O)cccc4c3c(=O)n2Cc2ccc(Br)o2)cc(OC)c1OC` [No. 122, 3-(5-Bromofuran-2-ylmethy1)-8-hydroxy-2-(3,4,5-trimethoxyphenyl)-3H-benzo[4,5]thieno[2,3-d]pyrimidin-4-one], the figures for the inhibition at 1 µM in test [1], in test [2] and in test [3] were 13.9%, 9.4% and 15.4%, respectively. Moreover, the inhibition at 10 µM is 49% in test [1], 56.2% in test [2] and 26.2% in test [3].
Take `COc1cc(-c2nc3sc4c(c3c(=O)n2Cc2ccccc2)CCC(Cl)C4=O)c(Cl)c(OC)c1OC` (stereo not drawn) [No. 123, 3-Benzyl-7-chloro-2-(2-chloro-3,4,5-trimethoxyphenyl)-6,7-dihydro-3H,5H-benzo[4,5]thieno[2,3-d]pyrimidine-4,8-dione]: the inhibition at 1 µM in test [1] was found to be 19.4%; in test [2], 1.3%; in test [3] it was 24.6%. For the same compound, the inhibition at 10 µM in test [1] is 62.9%; in test [2] it was 29.1%; in test [3], 40.2%.
For the compound `COc1cc(-c2nc3sc4c(O)cccc4c3c(=O)n2Cc2ccccc2)c(Cl)c(OC)c1OC` [No. 124, 3-Benzyl-2-(2-chloro-3,4,5-trimethoxyphenyl)-8-hydroxy-3H-benzo[4,5]thieno[2,3-d]pyrimidin-4-one], the inhibition at 1 µM in test [1] was 40.2%; in test [2], 8.3%; in test [3], 0.2%. Moreover, the inhibition at 10 µM in test [1] was found to be 73.3%; in test [2], 42.4%; in test [3] it was 17.6%.
For the compound `CCC(C)Cn1c(-c2cc(OC)c(OC)c(OC)c2)nc2sc3c(c2c1=O)CCCC3` (stereo not drawn) [No. 125, 3-(2-Methylbutyl)-2-(3,4,5-trimethoxyphenyl)-5,6,7,8-tetrahydro-3H-benzo[4,5]thieno[2,3-d]pyrimidin-4-one], the inhibition at 1 µM in test [1] amounted to 34.7%; in test [2], 10.9%; in test [3] it was 11.7%. Further, the inhibition at 10 µM in test [1] turned out to be 49.9%; in test [2], 21%; in test [3], 19.8%.
Take `CCC(C)Cn1c(-c2cc(OC)c(OC)c(OC)c2)nc2sc3c(c2c1=O)CCCC3=O` (stereo not drawn) [No. 126, 3-(2-Methylbutyl)-2-(3,4,5-trimethoxyphenyl)-6,7-dihydro-3H,5H-benzo[4,5]thieno[2,3-d]pyrimidine-4,8-dione]: the inhibition at 1 µM worked out at 27.4% in test [1], 8% in test [2] and 6.6% in test [3]. Also, the values for the inhibition at 10 µM in test [1], in test [2] and in test [3] were 59.3%, 36.3% and -9%, respectively.
In the case of `CCC(C)Cn1c(-c2cc(OC)c(OC)c(OC)c2)nc2sc3c(c2c1=O)CCC(Br)C3=O` (stereo not drawn) [No. 127, 7-Bromo-3-(2-methylbutyl)-2-(3,4,5-trimethoxyphenyl)-6,7-dihydro-3H,5H-benzo[4,5]thieno[2,3-d]pyrimidine-4,8-dione], the inhibition at 1 µM is 40.3% in test [1], 4.8% in test [2] and -0.4% in test [3]. For the same compound, the results for the inhibition at 10 µM in test [1], in test [2] and in test [3] were 91.3%, 29.3% and 5.7%, respectively.
Turning to `CCC(C)Cn1c(-c2cc(OC)c(OC)c(OC)c2Br)nc2sc3c(c2c1=O)CCC(Br)(Br)C3=O` (stereo not drawn) [No. 128, 7,7-Dibromo-2-(2-bromo-3,4,5-trimethoxyphenyl)-3-(2-methylbutyl)-6,7-dihydro-3H,5-benzo[4,5]thieno[2,3-d]pyrimidine-4,8-dione], the inhibition at 1 µM in test [1] is 17.9%; in test [2], 4.7%; in test [3], -4.9%. Further, the inhibition at 10 µM in test [1] amounted to 25.9%; in test [2], 6.3%; in test [3], 0%.
As for `CCC(C)Cn1c(-c2cc(OC)c(OC)c(OC)c2)nc2sc3c(O)cccc3c2c1=O` (stereo not drawn) [No. 129, 8-Hydroxy-3-(2-methylbutyl)-2-(3,4,5-trimethoxyphenyl)-3H-benzo[4,5]thieno[2,3-d]pyrimidin-4-one], the inhibition at 1 µM in test [1] turned out to be 46.8%; in test [2], 34.7%; in test [3], 23.9%. In addition, the inhibition at 10 µM in test [1] was found to be 85.3%; in test [2] it was 78.6%; in test [3], 53.1%.
`COc1cc(-c2nc3sc4c(c3c(=O)n2CC2CCCO2)CCCC4=O)cc(OC)c1OC` (stereo not drawn) [No. 131, 3-(Tetrahydro-furan-2-ylmethyl)-2-(3,4,5-trimethoxyphenyl)-6,7-dihydro-3H,5H-benzo[4,5]thieno[2,3-d]pyrimidine-4,8-dione]: the inhibition at 1 µM turned out to be 37.7% in test [1], 30.9% in test [2] and 31.2% in test [3]. For the same compound, the results for the inhibition at 10 µM in test [1], in test [2] and in test [3] were 84.7%, 80.1% and 40.1%, respectively.
Consider `COc1cc(-c2nc3sc4c(c3c(=O)n2CC2CCCO2)CCC(Br)C4=O)c(Br)c(OC)c1OC` (stereo not drawn) [No. 132, 7-Bromo-2-(2-bromo-3,4,5-trimethoxyphenyl)-3-(tetrahydrofuran-2-ylmethyl)-6,7-dihydro-3H,5H-benzo[4,5]thieno[2,3-d]pyrimidine-4,8-dione], for which the values for the inhibition at 1 µM in test [1], in test [2] and in test [3] were 23.8%, 16.9% and 22.8%, respectively. Further, the results for the inhibition at 10 µM in test [1], in test [2] and in test [3] were 53.9%, 24.9% and 16.9%, respectively.
On to `COc1cc(-c2nc3sc4c(O)cccc4c3c(=O)n2CC2CCCO2)c(Br)c(OC)c1OC` (stereo not drawn) [No. 133, 2-(2-Bromo-3,4,5-trimethoxyphenyl)-8-hydroxy-3-(tetrahydrofuran-2-ylmethyl)-3H-benzo[4,5]thieno[2,3-d]pyrimidin-4-one], for which the inhibition at 1 µM turned out to be 18.2% in test [1], 18.7% in test [2] and 6.8% in test [3]. Moreover, the values for the inhibition at 10 µM in test [1], in test [2] and in test [3] were 58.4%, 37.7% and 24.3%, respectively.

The inhibition is the change of the read-out against control, counted positive when it falls.

For the origin of these results see patent US7524853B2 (Solvay Pharmaceuticals B.V., priority 2003, dated 2009).
